Experimental data reported in patent US6060046A, “Antifouling compositions” (Unisearch Limited, priority 1994, dated 2000).

Tests used:
[1] = tested on: cyprids of the cosmopolitan fouling barnacle Balanus amphitrite; test: Inhibition of settlement of barnacle cyprid larvae, metabolites dissolved in water; type: in vivo; conditions: 24 hr, based on FIGS. 2 and 3
Method: Settlement assays were carried out using cyprids of the cosmopolitan fouling barnacle Balanus amphitrite. The methods used were similar to those used previously (Rittschof et al, 1994, Willemson 1994). Adult brood stock were maintained under controlled light (15 hr light: 9 hr dark) and temperature (28° C.) conditions and fed larvae of the brine shrimp Artemia salina and the diatom Skeletonema costatum. Recently spawned nauplii of B. amphitrite were collected and reared on Skeletonema costatum under the same conditions as adult stocks until reaching cyprid stage after four to five days. Cyprid larvae were subsequently filtered from the culture and maintained in filtered seawater at 5° C. for five days prior to use in settlement assays.
Assays used purified metabolites at concentrations ranging from 100 μg to 0.1 ng per millilitre. […]
Tests were conducted by adding 45-65 cyprids to petri-dishes (47 mm) containing five mls of either test solution, filtered seawater control, or DMSO control. […] The dishes were then rinsed and the percent settlement of cyprids was determined by counting settled and non settled larvae.
The effects of Delisea pulchra metabolites on the settlement of barnacle cyprid larvae, the growth of bacteria and the settlement and germination of algal spores were analysed in two ways. […]

marine bacterium SW8 = test: Inhibition of bacterial growth, marine isolate SW8; type: cell-based; conditions: c = control
Method: Assays to determine the antibacterial effect of Delisea metabolites used the marine isolate SW8 (Neu et al., 1991). […] Purified metabolites 1-4 were dissolved in ethyl acetate (10 mg/ml-10 μg/ml) and were added in volumes of 20 μl to sterilised McCartney bottles containing 19 mls of filter sterilised artificial seawater (ASW) medium supplemented with a trace vitamin and mineral solution (Schneider et al., 1994). Two reference compounds for antibacterial activity, the antibiotic gentamicin (Sigma)and a saturated copper (II) oxide solution, were also used in these tests. Following addition of metabolites, antibiotics or copper, the media was inoculated with SW8. The inoculum for the assay was taken from a continuous culture fermenter operating at a cell density of 10^7 cells/ml. The final concentration of metabolites and antibiotic tested ranged from 10 μg/ml to 10 ng/ml. Control bottles with media only, and media with 20 μl EtOAc added, were inoculated with SW8 and run concurrently with each experiment.
After mixing, 200 μl from each bottle was aseptically transferred to a well in a Nunc Tissue Culture plate (96 well). Plates were incubated aerobically at 30° C. with shaking. Growth was monitored by optical density (600 nm) every hour for 12 hours after which growth was monitored every four hours for a further 18 hours.
The effects of Delisea pulchra metabolites on the settlement of barnacle cyprid larvae, the growth of bacteria and the settlement and germination of algal spores were analysed in two ways. Firstly, we used Analysis of Variance (ANOVA) followed by Tukey's multiple comparison tests to determine which compounds, at which concentrations, had statistically significant effects on the test organisms. Analyses were done using the Statview II statistical package. These procedures enable us to determine the minimum concentration of a compound necessary to have some significant effect, and to look in a detailed way at variation in the effects of different compounds.

Row | Compound | EC50 + 95% conf. int. (50% settlement inhibition) [1] | Compounds in order of increasing activity (growth inhibition) (marine bacterium SW8; 4 hours, 10 ng/mL) | Compounds in order of increasing activity (growth inhibition) (marine bacterium SW8; 4 hours, 100 ng/mL) | Compounds in order of increasing activity (growth inhibition) (marine bacterium SW8; 4 hours, 1.0 μg/mL) | Compounds in order of increasing activity (growth inhibition) (marine bacterium SW8; 4 hours, 10 μg/mL) | Compounds in order of increasing activity (growth inhibition) (marine bacterium SW8; 11.5 hours, 10 ng/mL) | Compounds in order of increasing activity (growth inhibition) (marine bacterium SW8; 11.5 hours, 100 ng/mL) | Compounds in order of increasing activity (growth inhibition) (marine bacterium SW8; 11.5 hours, 1.0 μg/mL) | Compounds in order of increasing activity (growth inhibition) (marine bacterium SW8; 11.5 hours, 10 μg/mL) | Compounds in order of increasing activity (growth inhibition) (marine bacterium SW8; third panel, time not given, 10 ng/mL) | Compounds in order of increasing activity (growth inhibition) (marine bacterium SW8; third panel, time not given, 100 ng/mL) | Compounds in order of increasing activity (growth inhibition) (marine bacterium SW8; third panel, time not given, 1.0 μg/mL) [c 1 3 4 gent] | Compounds in order of increasing activity (growth inhibition) (marine bacterium SW8; third panel, time not given, 10 μg/mL)
1 | O=S(=O)([O-])[O-].[Cu+2] [CuSO4] | 0.40(0.25-0.77) μg/ml | – | – | – | – | – | – | – | – | – | – | – | –
2 | gentamicin | – | gent c 4 2 1 3 | gent 4 c 2 3 1 | c gent 2 1 4 3 | c 1 gent 2 3 4 | gent c 2 4 1 3 | gent 4 2 c 1 3 | c gent 1 2 3 4 | c 1 2 gent 3 4 | gent 4 1 c 3 2 | gent 4 3 2 c 1 | 2 | c 1 2 gent 3 4
